Like-named read-outs stand apart in the source and are kept apart here.
Columns and labels:
[1] = test system: TNFα; assay: Mouse TNF alpha quantification assay (LPS-stimulated RAW 264.7, ELISA); format: cell-based; conditions: RAW 264.7 murine leukemia virus transformed macrophage cell lines, LPS stimulation; for inhibition at 30 µM: Mus musculus, RAW264.7, 30 μM, read-out: TNF-α % Inhibition at 30 μM
Procedure: (§1) Cell lines: Abelson murine leukemia virus transformed macrophage cell line RAW 264.7 was purchased from ATCC and grown in complete DMEM-High Glucose medium supplemented with penicillin (100 U/mL), streptomycin (100 μg/mL), and 10% heat-inactivated FBS at 37° C. in a humidified incubator with 5% CO2.
(§2) Method: Cells were plated at 40000 cells/well density in a 96-wells plate. After a 3-hour incubation, macrophages were starved with DMEM plus 0.5% FBS o/n. The next day the small molecules to be tested were added to the cells in the final concentration of 30 μM (with 0.3% DMSO) 3 hours prior to LPS stimulation (100 ng/ml). After LPS stimulation cells were incubated at 37° C. for 16h. At the end of the incubation period, culture media were collected and production of LPS-induced TNFα and IL6 cytokine was measured using ELISA detection kits.
(§3) Sandwich ELISA: The ELISA Immunoassays Quantikine Mouse TNF-alpha (catalog number MTA00B) and IL6 (catalog number M6000B) were purchased from R&D Systems Inc., Minneapolis, Minn. These 4.5 hours solid phase ELISAs were used to measure mouse TNFα or IL6 levels in macrophages culture supernatants. Assays were executed according to the manufacturer specifications.

[2] = test system: IL6; assay: Mouse IL6 quantification assay (LPS-stimulated RAW 264.7, ELISA); format: cell-based; conditions: RAW 264.7 murine leukemia virus transformed macrophage cell lines, LPS stimulation; for inhibition at 30 µM: Mus musculus, RAW264.7, 30 μM, read-out: IL-6 % Inhibition at 30 μM
Procedure: as §1, §2, §3

[3] = biological target: KRas G12D/Q61H double mutant (Homo sapiens (Human), UniProt P01116, G12D/Q61H); assay: Ras GTP binding domain inhibition assay
Chain of KRas G12D/Q61H double mutant (P01116-2 other isoform, or with tags, fused parts or gaps G12D/Q61H): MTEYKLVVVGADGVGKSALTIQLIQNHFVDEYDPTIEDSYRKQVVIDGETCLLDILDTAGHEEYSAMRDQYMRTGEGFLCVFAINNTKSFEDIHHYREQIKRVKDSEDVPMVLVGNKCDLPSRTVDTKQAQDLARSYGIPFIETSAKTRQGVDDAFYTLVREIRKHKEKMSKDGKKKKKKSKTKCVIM
Procedure: (§4) Buffer-I: • 50 mM Tris, pH 7.5 • 150 mM NaCl (optional) • 1 mM MgCl2 • 1 mM DTT. • KRas G12D mutant protein was expressed as a His-tagged protein. Purified His-KRas G12D protein was diluted in buffer-I to a final concentration of 3-10 μg/ml. • 200 μl of the diluted His-KRas G12D protein was added to a nickel coated 96 well plate and incubated overnight at 4° C. • The next day, wells were washed 3× in 200 μl of Buffer-I. • Then 200 μl of Buffer-I were added to each well in the presence of 1% DMSO. • Tested compounds were added to the protein-coated wells at a concentration of 20 μM, and incubated for 3 hours at room temperature. While performing IC50 measurements a serial dilution of all tested concentrations was prepared.
(§5) Then 22 μl of Cy3-GTP or Cy5-GTP was added to each well. The labeled GTP was incubated for 45 min. at room temperature. • Following GTP incubation, wells were washed 3× in Buffer-I, and 200 μl of Buffer-I were added to each well. • Following washes, the amount of bound labeled-GTP was measured with an Eppendorf AF2200 plate reader.
By substituting KRas G12D mutant protein with KRas G12C mutant, KRas wild type, KRas Q61H mutant, KRas G12D/Q61H double mutant or KRas G12C/Q61H double mutant under the assay conditions described above, KRas G12C mutant KRas wild type, KRas Q61H mutant, KRas G12D/Q61H double mutant and KRas G12C/Q61H double mutant inhibition, respectively, were each determined.

[4] = biological target: Rho-A (Homo sapiens (Human), UniProt P61586); assay: Rac and Rho inhibition assay; format: binding; conditions: read-out: Rho-A % Inh.
Chain of Rho-A (P61586 whole entry): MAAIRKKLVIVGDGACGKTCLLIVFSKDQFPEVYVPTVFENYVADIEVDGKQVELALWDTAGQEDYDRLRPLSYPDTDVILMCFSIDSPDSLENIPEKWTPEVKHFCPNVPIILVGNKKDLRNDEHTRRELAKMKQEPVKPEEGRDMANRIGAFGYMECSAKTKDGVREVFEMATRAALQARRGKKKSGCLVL
Procedure: as §4, §5
(§6) By substituting KRas G12D mutant protein with either Rac-1 or Rho-A under the assay conditions described in Example 5, Rac-1 and Rho-A inhibition, respectively, were each determined.

[5] = biological target: Rac-1 (Homo sapiens (Human), UniProt P63000); assay: Rac and Rho inhibition assay; format: binding; conditions: read-out: Rac-1 % Inh.
Procedure: as §4, §5, §6

[6] = 20 μM, read-out: KRas G12D Q61H % Inh.
[7] = 20 μM compound, read-out: % Inhibition at 20 μM, KRas G12D Q61H
[8] = at 20 μM, read-out: KRas G12D Q61H % Inh.

Row | SMILES | inhibition at 20 µM [4] [%] | inhibition at 20 µM [5] [%] | further results
1 | Cn1cc(-c2nc(C(=O)Nc3nnc(-c4ccccn4)[nH]3)cs2)cn1 | – | – | inhibition at 30 µM [1]: 0%
2 | Cc1ccc(CC(=O)Nc2nnc(-c3ccccn3)[nH]2)cc1 | – | – | inhibition at 30 µM [2]: 51 to 75%
3 | Cc1sc2c(O)nc(-c3ccccn3)nc2c1-c1ccccc1 | – | – | TNF-α % Inhibition at 30 μM [1]: A (A = 1-25% inhibition); IL-6 % Inhibition at 30 μM [2]: C (C = 51-75% inhibition)
4 | COC(=O)c1csc2nc(-c3ccccn3)nc(O)c12 | – | – | inhibition at 30 µM [1]: 0%; inhibition at 30 µM [2]: 51 to 75%
5 | O=C(O)c1csc2nc(-c3ccccn3)nc(O)c12 | – | – | inhibition at 30 µM [1]: 1 to 25%; inhibition at 30 µM [2]: 1 to 25%
6 | Oc1nc(-c2ccccn2)nc2c(-c3cccnc3)c(C(F)(F)F)sc12 | – | – | inhibition at 30 µM [1]: 0%; inhibition at 30 µM [2]: 51 to 75%
7 | Nc1nc(-c2ccccn2)nc2c(C3CCCCC3)csc12 | – | – | inhibition at 30 µM [1]: 0%; inhibition at 30 µM [2]: 0%
8 | Nc1nc(-c2ccccn2)nc2c(C3CCCC3)csc12 | – | – | inhibition at 30 µM [1]: 26 to 50%; inhibition at 30 µM [2]: 51 to 75%
9 | O=c1nc(-c2ccccn2)[nH]c2ccsc12 | – | – | inhibition at 20 µM [3, 6]: 51 to 75%
10 | O=[N+]([O-])c1cc(C(F)(F)F)ccc1Sc1nc2c(c(C(F)(F)F)n1)CCCC2 | – | – | inhibition at 20 µM [3, 6]: 51 to 75%
11 | CCOC(=O)c1ccnc(N2CCC(C)CC2c2ccc(CC)o2)c1[N+](=O)[O-] (stereo not shown) | – | – | inhibition at 20 µM [3, 6]: 51 to 75%
12 | CCC1=CC2C(=O)NC(c3ccccn3)=NC2S1 (stereo not shown) | – | – | inhibition at 20 µM [3, 7]: 25 to 50%
13 | O=c1[nH]c(-c2cncc(OCC(F)F)c2)nc2cc(F)c(F)cc12 | – | – | inhibition at 20 µM [3, 7]: 25 to 50%
14 | CN(C(=O)c1ccc(COc2ccccc2F)o1)c1cccs1 | – | – | inhibition at 20 µM [3, 7]: 25 to 50%
15 | C=C(CNc1nc(-c2ccccn2)nc2scc(-c3ccccc3)c12)NC | – | – | inhibition at 20 µM [3, 7]: 25 to 50%
16 | CCN(Cc1cnc(S(=O)(=O)N(C)C)o1)c1ccccc1 | – | – | inhibition at 20 µM [3, 7]: 25 to 50%
17 | CCOc1ccc(C(F)(F)F)cc1NCc1ncc(C)o1 | – | – | inhibition at 20 µM [3, 7]: 25 to 50%
18 | FC(F)(F)c1cccc(N2CCN(c3cc(Cl)nc4ncnn34)CC2)c1 | – | – | inhibition at 20 µM [3, 7]: 25 to 50%
19 | O=C(c1ccc(S(=O)(=O)N2CCOCC2)cc1)N(Cc1ccccc1)Cc1cccs1 | – | – | inhibition at 20 µM [3, 7]: 1 to 25%
20 | CCOC(=O)c1cnc(N(C2CC2)S(=O)(=O)c2ccc(OC)c(C)c2)s1 | – | – | inhibition at 20 µM [3, 7]: 1 to 25%
21 | C=CCc1cc(COC)ccc1OCC(=O)NCc1ccc(OC)cc1 | – | – | inhibition at 20 µM [3, 7]: 25 to 50%
22 | O=C1C2C=CC=CC2OC(O)C1Cc1cc(Cl)c2cccnc2c1O (stereo not shown) | – | – | inhibition at 20 µM [3, 7]: 25 to 50%
23 | COc1ccc(N2CCN(C(=O)c3csc4c(O)cc(-c5ccccn5)cc34)CC2)cc1O | 76 to 100 | 76 to 100 | inhibition at 20 µM [3, 8]: 1 to 25%
24 | O=C(c1csc2c(O)nc(-c3ccccn3)nc12)N1CCN(c2ccc(O)c(O)c2)CC1 | 76 to 100 | 76 to 100 | inhibition at 20 µM [3, 8]: 51 to 75%
25 | O=C(c1csc2c(O)nc(-c3ccccn3)nc12)N1CCNC(c2ccc(O)cc2)C1 (stereo not shown) | 76 to 100 | 76 to 100 | –
26 | COCCCCNC(=O)c1csc2nc(-c3ccccn3)nc(O)c12 | 1 to 25 | 1 to 25 | inhibition at 20 µM [3, 8]: 1 to 25%

Row | SMILES | inhibition at 20 µM [4] [%] | inhibition at 20 µM [5] [%] | further results
27 | CN(C)Cc1ccc(-c2csc3c(O)nc(-c4ccccn4)nc23)cc1F | 76 to 100 | 76 to 100 | –
28 | COCc1ccc(-c2csc3c(O)nc(-c4ccccn4)nc23)cc1F | – | 76 to 100 | –
29 | O=C(c1csc2c(O)nc(-c3ccccn3)nc12)N1CCNC(c2cn[nH]c2)C1 (stereo not shown) | – | 76 to 100 | –
30 | CC(C)COc1ccc(-c2csc3c(O)nc(-c4ccccn4)nc23)cn1 | – | 76 to 100 | –
31 | Oc1nc(-c2ccccn2)nc2c(-c3ccccc3C(F)F)csc12 | 76 to 100 | 76 to 100 | –
32 | COc1cc(-c2csc3c(O)nc(-c4ccccn4)nc23)cnc1C(F)(F)F | 51 to 75 | – | –
33 | Oc1nc(-c2ccccn2)nc2c(-c3ccc4c(c3)CCCO4)csc12 | 51 to 75 | – | –
34 | CCC1N=C(C)C=C1c1csc2c(O)nc(-c3ccccn3)nc12 (stereo not shown) | 76 to 100 | 51 to 75 | inhibition at 20 µM [3, 8]: 51 to 75%
35 | Oc1nc(-c2ccccn2)nc2c(-c3cnc4ccccc4c3)csc12 | 51 to 75 | 51 to 75 | –
36 | Oc1nc(-c2ccccn2)nc2c(-c3cc(C(F)(F)F)ccc3F)csc12 | 1 to 25 | – | –
37 | Oc1nc(-c2ccccn2)nc2c(-c3cncc(C(F)(F)F)c3)csc12 | – | 1 to 25 | –
38 | CCC(C)c1csc2c(OC)nc(-c3ccccn3)nc12 (stereo not shown) | – | 76 to 100 | –
39 | Cc1c(C(=O)N2CCN(c3ccccc3)CC2)sc2c(O)nc(-c3ccccn3)nc12 | 76 to 100 | – | –
40 | COC(=O)c1c(C)sc2nc(-c3ccccn3)nc(N)c12 | 51 to 75 | 25 to 50 | –
41 | CN(C)CCOc1cccc(-c2csc3c(O)nc(-c4ccccn4)nc23)c1 | 76 to 100 | 76 to 100 | –
42 | Cc1sc2c(O)nc(-c3ccccn3)nc2c1C(=O)N1CCN(Cc2cccc(O)c2)CC1 | 76 to 100 | 76 to 100 | –
43 | Oc1nc(-c2ccccn2)nc2c(C3CC3)csc12 | 51 to 75 | – | –
44 | COc1cnc(CNC(=O)c2c(C)sc3c(O)nc(-c4ccccn4)nc23)[nH]c1=O | 1 to 25 | 1 to 25 | –
45 | O=C(c1csc2c(O)nc(-c3ccccn3)nc12)N1CCNC(c2ccc(Cl)cc2)C1 (stereo not shown) | 76 to 100 | 76 to 100 | –
46 | Cc1sc2c(O)nc(-c3ccccn3)nc2c1Br [drawing 2319] | – | – | IL-6 % Inhibition at 30 μM [2]: A (A = 1-25% inhibition)
47 | Cc1sc2c(O)nc(-c3ccccn3)nc2c1Br [drawing 2383] | – | – | TNF-α % Inhibition at 30 μM [1]: 0 (0 = 0% inhibition)
48 | COc1ccc(CCNC(=O)c2csc3nc(-c4ccccn4)nc(N4CCSCC4)c23)cn1 [drawing 3751] | 1 to 25 | 25 to 50 | inhibition at 20 µM [3, 8]: 25 to 50%
49 | O=C(NCCc1cnc(O)nc1)c1csc2nc(-c3ccccn3)nc(N3CCSCC3)c12 [drawing 3752] | 51 to 75 | 51 to 75 | inhibition at 20 µM [3, 8]: 25 to 50%
50 | Cc1cc2nc(-c3ccccn3)nc(O)c2s1 [drawing 3817] | 76 to 100 | 76 to 100 | –
51 | OC[C@H]1O[C@@H](c2csc3c2N=C(c2ccccn2)NC3O)[C@H](O)[C@@H]1O (stereo partly shown) [drawing 3871] | 51 to 75 | 51 to 75 | –
52 | COCCNc1nc(-c2nccn2C)nc2sc(-c3ccccc3)c(-c3ccccc3)c12 [drawing 3879] | 51 to 75 | 76 to 100 | –

Source: patent publication US11541041B1, “Compounds that interact with the Ras superfamily for the treatment of cancers, inflammatory diseases, Rasopathies, and fibrotic disease” (Shy Therapeutics LLC, priority 2017, dated 2023)
